Test results taken from patent US12478634B2, “Compositions and methods for treating muscular dystrophy and other disorders” (The Charlotte Mecklenburg Hospital Authority, priority 2016, dated 2025).

Key:
[1] = tested on: epithelial cells; test: IIH6 blot of glycosylated α-DG from treated epithelial cells; type: cell-based; conditions: 3 days culture with agent
Protocol: Lane 1, control untreated cells; Lane 4, cells treated with ribulose-5-phosphate; Lane 5, cells treated with glucose. […] Cells are grown in culture medium and active reagents were added one day later and culture for further 3 days with the active agent. The cells were then collected, homogenized, blotted onto membrane and detected with 1H6 antibody for the expression of glycosylated a-DG. The black large spot represents the expression of the glycosylated a-DG, with higher intensity indicating higher levels.

[2] = tested on: epithelial cells; test: IIH6 membrane staining of glycosylated α-DG in treated epithelial cells; type: cell-based; conditions: 3 days culture with agent, vs control
Protocol: The white lines represent the membrane staining with the antibody. […] Cells are grown in culture medium and active reagents were added one day later and culture for further 3 days with the described concentration. The cells were then washed, fixed and stained with IIH6 antibody for the expression of glycosylated a-DG. The positive signals present as membrane staining (white lines and circles here) which are only detected in the majority of the treated samples, but hardly seen in the control.

[3] = tested on: MCF-7 cells; test: FACS for expression of glycosylated alpha-DG after ribitol treatment; type: cell-based; conditions: MCF-7, 10 mM ribitol for 3 days; untreated controls 45%
Protocol: FIG. 1. Fluorescence-activated cell sorting (FACS) for the enhanced expression of glycosylated alpha-DG after ribitol treatment. The breast cancer cell line MCF-7 was seeded in T25 culture flasks and cultured to 75% confluence in DMEM 10% FBS, and then treated with 10 mM ribitol in the same growth medium for 3 days. The cells were then collected by gentle scrapping and washed twice with PBS. The cells were resuspended in 100 microliter PBS and stained with monoclonal antibody IIH6 (Millipore EMD, 1:100 dilution) for 40 minutes and detected with secondary Alexa 594-labeled goat anti-mouse IgM (Invitrogen). The stained cells were washed and then FACS analyzed for the percentage of positive cells and the signal intensity (Alexa594.007). […]
Fluorescence-activated cell sorting (FACS) was used to show enhanced expression of glycosylated alpha-DG after ribitol treatment. […] The cells were resuspended in 100 microliter PBS and stained with monoclonal antibody IIH6 (Millipore EMD, 1:100 dilution) for 40 minutes and detected with secondary Alexa 594-labeled goat anti-mouse IgM (Invitrogen). The stained cells were washed and then FACS analyzed for the percentage of positive cells and the signal intensity (Alexa594.007). […]

[4] = tested on: FKRP and LARGE transcripts; test: Quantitative real-time PCR of FKRP and LARGE transcripts; type: in vivo, mouse; conditions: cardiac muscle, limb muscle and diaphragm
Protocol: Quantitative reverse transcriptase PCR assay. Tissues were collected from heart, diaphragm and tibialis anterior. RNA was extracted using TRIzol (Invitrogen) following the supplied protocol. Final RNA pellet was re-suspended in 20 μl RNAse-nuclease free water. Final RNA concentration was determined using Nanodrop 2000c. One […] of RNA was subsequently converted to cDNA using the High-Capacity RNA-to-cDNA™ Kit (Applied Biosystems) following the supplied protocol. cDNA was then used for quantitative real-time PCR using the mouse FKRP-FAM (Mm00557870 ml) and LARGE-FAM (Mm00521885_ml) taqman assay with primer limited GAPDH-VIC (Mm99999915_g1) as the internal control and TaqMan® Universal Master Mix II, with UNG (Life Technologies). […] Results of FKRP and LARGE transcript were calculated and expressed as 2^−ΔΔCt and compared across tissues and animals.

O=C(CO)[C@H](O)[C@H](O)COP(=O)(O)O [ribulose-5-phosphate, reference compound]
functionally glycosylated alpha-DG on blot [1]: barely detectable

Nc1ccn([C@@H]2O[C@H](COP(=O)(O)OP(=O)(O)OC[C@@H](O)[C@@H](O)[C@@H](O)CO)[C@@H](O)[C@H]2O)c(=O)n1 [CDP-ribitol]
glycosylated α-DG membrane staining (IIH6) [2]: positive signals are identified in the majority of the cells

O=C(CO)[C@H](O)[C@H](O)CO [ribulose]
glycosylated α-DG membrane staining (IIH6) [2]: positive signals are identified in the majority of the cells
functionally glycosylated alpha-DG on blot [1]: observed visually

OC[C@@H](O)[C@@H](O)[C@@H](O)CO [ribitol]
positive cells for glycosylated alpha-DG (IIH6 antibody) [3]: 82%
FKRP and LARGE transcript levels, treated vs untreated [4]: No statistically significant difference
glycosylated α-DG membrane staining (IIH6) [2]: positive signals are identified in the majority of the cells
functionally glycosylated alpha-DG on blot [1]: observed visually
